Results on 11 molecules are retold here after patent US10421774B2 (priority 2016, dated 2019).

Assay in all cases: microbe, parasite or virus in culture
Assay type in all cases: cell-based, HIV-1

The test system of assay [1] is T332S/V362I/Pr R41G virus. Particulars: for EC50: Human immunodeficiency virus 1, MT2, read-out: T332S/V362I/pr41G EC50. The procedure:
(§1) Cells. MT-2 cells and 293T cells were obtained from the NIH AIDS Research and Reference Reagent Program. Cell lines were sub-cultured twice a week in either RPMI 1640 (MT-2) or DMEM (293T, HeLa) media supplemented with 10% heat inactivated fetal bovine serum (FBS), 100 units/mL of penicillin G and 100 μg/mL of streptomycin. The DMEM medium was additionally supplemented with 10 mM HEPES buffer, pH 7.55, 2 mM L-glutamine and 0.25 μg/mL of amphotericin B.
(§2) Viruses. NLRepRluc virus contains the Renilla luciferase marker in place of the viral nef gene. The proviral plasmid pNLRepRluc was constructed at Bristol-Myers Squibb, starting from a proviral NL4-3 clone (B subtype) that was obtained from the NIH AIDS Research and Reference Reagent Program. The parental recombinant wild type (WT) virus (NLRepRlucP373S) was derived from NLRepRluc and contains the additional substitution of P373 for serine in Gag (within the SP1 spacer), the most common 373 variation in subtype B. Other recombinant viruses (A364V, V370A/ΔT371 and the “T3325 triple” (T332S/V362I+HIV-1 protease R41G)) were generated by site-directed mutagenesis of plasmid pNLRepRlucP373S to introduce those amino acid substitutions in Gag and protease. Recombinant virus DNA was then used to generate virus stocks by transfection of 293T cells (Lipofectamine PLUS kit, Invitrogen). Titers of virus stocks were determined using a luciferase assay (Dual-Luciferase® Reporter Assay System, Promega, Milwaukee, Wis., USA) endpoint.
(§3) Multiple cycle drug susceptibility assay. Pellets of MT-2 cells were infected with NLRepRlucP373S Gag site-directed viruses, where initial inocula of the reporter strains were normalized using equivalent endpoint luciferase activity signals. Such cell-virus mixtures were resuspended in medium, incubated for 1-hour at 37° C./CO2, and added to compound containing 96-well plates at a final cell density of 10,000 cells per well. The test compounds were 3-fold serially diluted in 100% DMSO, and assayed at a final DMSO concentration of 1%. After 4-5 day incubation at 37° C./CO2, virus yields were determined by Renilla luciferase activity (Dual-Luciferase® Reporter Assay System, Promega). The endpoint luminescence was detected on a Wallac Trilux (PerkinElmer).
T332sN362I/Pr R41G (N14.3, B Clade) virus′ was obtained as follows: Selection for resistance of HIV-1 strain […] virus with the HIV maturation inhibitor (MI) compound
At passage 8 virus was harvested and sequenced.
(§4) All three recombinant viruses were used as described above in the HIV cell culture assay for the NL4-3 virus.

Assay [2] has as its system NLRepRlucP373S recombinant wild type (WT) virus. The procedure: as §1, §2, §3
The 50% inhibitory concentrations (EC50S) were calculated by using the exponential form of the median effect equation where Percent Inhibition=1/[1+(EC50/drug conc.^m], where m is a parameter that reflects the slope of the concentration-response curve. Background was taken as the residual signal observed upon inhibition at the highest concentration of a control protease inhibitor, NFV (3 μM).
The 90% inhibitory concentrations (EC90S) were calculated by using the exponential form of the median effect equation where ECF=[(F/(100−F)]^1/H·EC50, where H is a parameter that reflects the slope of the concentration-response curve. Background was taken as the residual signal observed upon inhibition at the highest concentration of a control protease inhibitor, NFV (3 μM).

The subject of the next assay is gag V370A/ΔT371 virus. As to conditions: for EC50: Human immunodeficiency virus 1, MT2, read-out: V370A/ΔT371 EC50. The procedure:
as §1, §2, §3
(§5) HIV-1 NL4-3 expressing Renilla luciferase gene was converted to the gag V370A/ΔT371 virus by site directed mutagenesis. A364V is a site directed mutant.
as §4

In assay [3] the test system is A364V site directed mutant virus. Particulars: for EC50: Human immunodeficiency virus 1, MT2, read-out: A364V EC50. Here is the method:
as §1, §2, §3, §5, §4

Setting [4] is: Human immunodeficiency virus 1, MT2, read-out: WT EC50.

Read-outs that look alike come from different tables or passages of the source.

For the molecule `C=C(C)[C@@H]1CC[C@]2(NC[C@@](C)(O)CO)CC[C@]3(C)[C@H](CC[C@@H]4[C@@]5(C)CC=C(C6=CC[C@](COc7ncccc7C#N)(C(=O)O)CC6)C(C)(C)[C@@H]5CC[C@]43C)[C@@H]12` [Example A13, (R)-1-(((3-cyanopyridin-2-yl)oxy)methyl)-4-((1R,3aS,5aR,5bR,7aR,11aS,11bR,13aR,13bR)-3a-(((R)-2,3-dihydroxy-2-methylpropyl)amino)-5a,5b,8,8,11a-pentamethyl-1-(prop-1-en-2-yl)-2,3,3a,4,5,5a,5b,6,7,7a,8,11,11a,11b,12,13,13a,13b-octadecahydro-1H-cyclopentalalchrysen-9-yl)cyclohex-3-enecarboxylic acid], the EC50 stood at 27 nM in assay [1], 2 nM in assay [2] (setting [4]), 27 nM with gag V370A/ΔT371 virus and 831 nM in assay [3].
Consider `C=C(C)[C@@H]1CC[C@]2(NCCN3CCS(=O)(=O)CC3)CC[C@]3(C)[C@H](CC[C@@H]4[C@@]5(C)CC=C(C6=CCC(COc7ncccn7)(C(=O)O)CC6)C(C)(C)[C@@H]5CC[C@]43C)[C@@H]12` (some centres unmarked) [Example 34], for which the EC50 in assay [1] is 13 nM; in assay [2] (setting [4]), 2 nM; with gag V370A/ΔT371 virus, 13 nM; in assay [3] it was less than 50 nM.
For `C=C(C)[C@@H]1CC[C@]2(NCCN3CCS(=O)(=O)CC3)CC[C@]3(C)[C@H](CC[C@@H]4[C@@]5(C)CC=C(C6=CCC(CCOc7ccccn7)(C(=O)O)CC6)C(C)(C)[C@@H]5CC[C@]43C)[C@@H]12` (stereo partly drawn) [Example A20, 4-((1R,3aS,5aR,5bR,7aR,11aS,11bR,13aR,13bR)-3a-((2-(1,1-dioxidothiomorpholino)ethyl)amino)-5a,5b,8,8,11a-pentamethyl-1-(prop-1-en-2-yl)-2,3,3a,4,5,5a,5b,6,7,7a,8,11,11a,11b,12,13,13a,13b-octadecahydro-1H-cyclopenta[a]chrysen-9-yl)-1-(2-(pyridin-2-yloxy)ethyl)cyclohex-3-ene-1-carboxylic acid], the EC50 (in assay [1]; in assay [2] (setting [4]); with gag V370A/ΔT371 virus; in assay [3]) was less than 50 nM throughout.
On to `C=C(C)[C@@H]1CC[C@]2(NCCN3CCS(=O)(=O)CC3)CC[C@]3(C)[C@H](CC[C@@H]4[C@@]5(C)CC=C(C6=CCC(COCc7ncccc7C#N)(C(=O)O)CC6)C(C)(C)[C@@H]5CC[C@]43C)[C@@H]12` (some centres unmarked) [reference compound], for which the EC90 worked out at 1460 nM in assay [1] (Human immunodeficiency virus 1, read-out: T332S/V362I/prR41G EC90); 1460 nM in the assay with gag V370A/ΔT371 virus (Human immunodeficiency virus 1, read-out: V370A/ΔT371 EC90); 340 nM in assay [3] (Human immunodeficiency virus 1, read-out: A364V EC90). In addition, in assay [2] (Human immunodeficiency virus 1, read-out: WT EC50), the EC50 is 2 nM.
With `C=C(C)[C@@H]1CC[C@]2(NC[C@@H](O)C(=O)O)CC[C@]3(C)[C@H](CC[C@@H]4[C@@]5(C)CC=C(C6=CC[C@](COc7ncccc7C(=O)O)(C(=O)O)CC6)C(C)(C)[C@@H]5CC[C@]43C)[C@@H]12` [Example A16, 2-(((R)-1-carboxy-4-((1R,3aS,5aR,5bR,7aR,11aS,11bR,13aR,13bR)-3a-(((R)-2-carboxy-2-hydroxyethyl)amino)-5a,5b,8,8,11a-pentamethyl-1-(prop-1-en-2-yl)-2,3,3a,4,5,5a,5b,6,7,7a,8,11,11a,11b,12,13,13a,13b-octadecahydro-1H-cyclopenta[a]chrysen-9-yl)cyclohex-3-en-1-yl)methoxy)nicotinic acid], the EC50 in assay [1] is 68 nM; in assay [2] (setting [4]), 10 nM; with gag V370A/ΔT371 virus, 68 nM; in assay [3] it was 139 nM.
As to `C=C(C)[C@@H]1CC[C@]2(NCC[C@]3(O)CC[C@@H](S(C)(=O)=O)CC3)CC[C@]3(C)[C@H](CC[C@@H]4[C@@]5(C)CC=C(C6=CC[C@](COc7ncccc7C#N)(C(=O)O)CC6)C(C)(C)[C@@H]5CC[C@]43C)[C@@H]12` [Example A5, (R)-1-(((3-cyanopyridin-2-yl)oxy)methyl)-4-((1R,3aS,5aR,5bR,7aR,11aS,11bR,13aR,13bR)-3a-((2-((1s,4R)-1-hydroxy-4-(methylsulfonyl)cyclohexyl)ethyl)amino)-5a,5b,8,8,11a-pentamethyl-1-(prop-1-en-2-yl)-2,3,3a,4,5,5a,5b,6,7,7a,8,11,11a,11b,12,13,13a,13b-octadecahydro-1H-cyclopenta[a]chrysen-9-yl)cyclohex-3-enecarboxylic acid], the EC50 in assay [1] worked out at 3 nM; in assay [2] (setting [4]), 2 nM; in the assay on gag V370A/ΔT371 virus it was 3 nM; in assay [3], 6 nM.
For the molecule `C=C(C)[C@@H]1CC[C@]2(NCC(C)(O)C(=O)O)CC[C@]3(C)[C@H](CC[C@@H]4[C@@]5(C)CC=C(C6=CC[C@](COc7ncccc7C#N)(C(=O)O)CC6)C(C)(C)[C@@H]5CC[C@]43C)[C@@H]12` (stereo partly drawn) [Example A19, (1R)-4-((1R,3aS,5aR,5bR,7aR,11aS,11bR,13aR,13bR)-3a-((2-carboxy-2-hydroxypropyl)amino)-5a,5b,8,8,11a-pentamethyl-1-(prop-1-en-2-yl)-2,3,3a,4,5,5a,5b,6,7,7a,8,11,11a,11b,12,13,13a,13b-octadecahydro-1H-cyclopenta[a]chrysen-9-yl)-1-(((3-cyanopyridin-2-yl)oxy)methyl)cyclohex-3-enecarboxylic acid], the EC50 in assay [1] is 20 nM; in assay [2] (setting [4]) it was 3 nM; in the assay on gag V370A/ΔT371 virus, 20 nM; in assay [3], more than 50 nM.
Take `C=C(C)[C@@H]1CC[C@]2(NCCN3CCS(=O)(=O)CC3)CC[C@]3(C)[C@H](CC[C@@H]4[C@@]5(C)CC=C(C6=CCC(COc7cnnn7-c7ccccc7)(C(=O)O)CC6)C(C)(C)[C@@H]5CC[C@]43C)[C@@H]12` (some centres unmarked) [Example 16]: the EC50 in assay [1] was 30 nM; in assay [2] (setting [4]), 5 nM; in the assay on gag V370A/ΔT371 virus it was 30 nM; in assay [3], 32 nM.
Turning to `C=C(C)[C@@H]1CC[C@]2(NCCN3CCS(=O)(=O)CC3)CC[C@]3(C)[C@H](CC[C@@H]4[C@@]5(C)CC=C(C6=CCC(COc7nsc8ccccc78)(C(=O)O)CC6)C(C)(C)[C@@H]5CC[C@]43C)[C@@H]12` (some centres unmarked) [Example 8], the EC50 (in assay [1]; in assay [2] (setting [4]); with gag V370A/ΔT371 virus; in assay [3]) was less than 50 nM throughout.
In the case of `C=C(C)[C@@H]1CC[C@]2(NCCN3CCS(=O)(=O)CC3)CC[C@]3(C)[C@H](CC[C@@H]4[C@@]5(C)CC=C(C6=CC[C@](COc7ccncn7)(C(=O)O)CC6)C(C)(C)[C@@H]5CC[C@]43C)[C@@H]12` [Example 21], the EC50 in assay [1] was more than 50 nM; in assay [2] (setting [4]), less than 50 nM; with gag V370A/ΔT371 virus, more than 50 nM; in assay [3], less than 50 nM.
As to `C=C(C)[C@@H]1CC[C@]2(NCCN3CCS(=O)(=O)CC3)CC[C@]3(C)[C@H](CC[C@@H]4[C@@]5(C)CC=C(C6=CC[C@@](COc7ccccn7)(C(=O)O)CC6)C(C)(C)[C@@H]5CC[C@]43C)[C@@H]12` [Example 31, (S)-4-((1R,3aS,5aR,5bR,7aR,11aS,11bR,13aR,13bR)-3a-((2-(1,1-dioxidothiomorpholino)ethyl)amino)-5a,5b,8,8,11a-pentamethyl-1-(prop-1-en-2-yl)-2,3,3a,4,5,5a,5b,6,7,7a,8,11,11a,11 b,12,13,13a,13b-octadecahydro-1H-cyclopenta[a]chrysen-9-yl)-1-((pyridin-2-yloxy)methyl)cyclohex-3-ene-1-carboxylic acid], the EC50 in assay [1] was 9 nM; in assay [2] (setting [4]) it was 2 nM; in the assay with gag V370A/ΔT371 virus it was 9 nM; in assay [3] it was 6 nM.
